Data published in patent publication US8648169B2, “Methods of use of Trk receptor modulators” (The Royal Institution for the Advancement of …, priority 2006, dated 2014).
Where “and” joins values, the source holds several entries; their conditions need not be identical. Equal entries are not always repeated. Entries after “also recorded” stand apart in the source; their conditions may differ. No end group written: not given here.

Tests used:
[1] = tested on: intraocular pressure (IOP) of rat eyes
Description: High IOP was induced in rat eyes, by reducing aqueous humor outflow through episcleral vein cauterization, while the contralateral eyes were sham-operated and were used as controls (FIG. 2).

[2] = tested on: retinal ganglion cells (RGCs); test: RGC loss in ocular hypertension (glaucoma) model, retrogradely labeled surviving RGCs counted in flat mounted retinas;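 on all read-outs here: female Wistar rats aged 8 weeks with three episcleral veins cauterized in the right eye, sham-operated left eye as normal IOP control, at least six retinas averaged per group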; details: for % RGCs loss at day 49 (vs. Normal) / % RGCs loss at day 42 (vs. Norma): cauterized eye; for RGC loss (% of normal IOP): +daily betaxolol (days 4-35)
Description: Using retrograde tracers, surviving RGCs were labeled at the cell soma and flat retinal spreads were analyzed for RGC numbers (Table 2).
Surviving RGCs, identified by retrograde labeling, were counted at day 42 post-surgery. In this protocol, the TrkA agonist or controls were not given between days 21 and 42, to evaluate whether any protection could be long-lived. […] Each data point represents the average of at least 6 retinas/experimental group±sd. […] Peptidomimetic D3 (TrkA agonist) or controls were injected intraocularly, each injection at 1 μg in 1 μl. […] Retrogradely labeled surviving RGCs at day 42 post-cauterization were counted in flat mounted retinas (except rows 3 and 4 that were terminated at days 14 and 28). Two investigators counted the RGCs, with one unaware of the groups.
Episcleral cauterization was performed under anesthesia in Wistar rats, female, 8 weeks of age. After a conjunctival incision, extra-ocular muscles were isolated and the major limbal draining veins were identified based on location, relative immobility, larger caliber and branching pattern. Cauterization of three episcleral vessels in the right eye were done with a 30″ cautery tip. The left eye in each animal was used as normal IOP control after sham-surgery (conjuctival incisions with no cauterization). […] Planar ophthalmoscopy was used to confirm normal perfusion of the retina at elevated IOP. […] IOP was measured using a Tonopen XL tonometer under light anesthesia (intramuscular injection of ketamine, 4 mg/kg; xylazine, 0.32 mg/kg; and acepromazine, 0.4 mg/kg). Initially IOP was measured daily (three consecutive readings are taken each time) and then weekly until termination.
A puncture was made in the eye wall with a 30 G needle to place a cannula in the orbit. The tip of the needle was inserted at a 45° angle through the sclera into the vitreous body. This route of administration avoided injury to eye structures.

axotomized RGCs [3] = test: RGC survival in optic nerve axotomy; assay type: in vivo
Description: It is important to contrast the results in this glaucoma model with those published in optic nerve axotomy (where the optic nerve is sectioned or crushed and RGC axons are damaged). The two are very different models of RGC damage, where glaucoma is chronic and progressive and is an intraocular disease while axotomy is acute and is an extraocular disease. Thus, in optic nerve axotomy NTFs have been applied successfully. The survival of an axotomized optic nerve was promoted by NGF, BDNF, NT-4, CNTF, as well as bFGF, and GDNF.

CNS = details: cited from earlier work
p75 receptor = target: T1, p75 receptor (Homo sapiens, UniProt P08138); details: cited from earlier work
T1 sequence (P08138 29-427): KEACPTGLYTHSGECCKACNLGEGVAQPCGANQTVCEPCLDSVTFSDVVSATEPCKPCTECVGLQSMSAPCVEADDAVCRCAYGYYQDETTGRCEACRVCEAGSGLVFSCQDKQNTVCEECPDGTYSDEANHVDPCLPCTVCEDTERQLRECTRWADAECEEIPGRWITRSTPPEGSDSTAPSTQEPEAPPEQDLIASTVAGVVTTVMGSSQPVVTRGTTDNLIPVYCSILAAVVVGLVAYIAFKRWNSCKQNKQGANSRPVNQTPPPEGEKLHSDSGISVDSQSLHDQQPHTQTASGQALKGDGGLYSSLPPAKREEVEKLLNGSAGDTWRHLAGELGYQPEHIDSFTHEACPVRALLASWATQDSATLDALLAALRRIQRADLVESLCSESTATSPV

TrkA = TrkA (Homo sapiens, UniProt P04629); details: irrespective of whether the p75 receptor is expressed; cited from earlier work
Chain of TrkA (P04629 33-796, species assumed): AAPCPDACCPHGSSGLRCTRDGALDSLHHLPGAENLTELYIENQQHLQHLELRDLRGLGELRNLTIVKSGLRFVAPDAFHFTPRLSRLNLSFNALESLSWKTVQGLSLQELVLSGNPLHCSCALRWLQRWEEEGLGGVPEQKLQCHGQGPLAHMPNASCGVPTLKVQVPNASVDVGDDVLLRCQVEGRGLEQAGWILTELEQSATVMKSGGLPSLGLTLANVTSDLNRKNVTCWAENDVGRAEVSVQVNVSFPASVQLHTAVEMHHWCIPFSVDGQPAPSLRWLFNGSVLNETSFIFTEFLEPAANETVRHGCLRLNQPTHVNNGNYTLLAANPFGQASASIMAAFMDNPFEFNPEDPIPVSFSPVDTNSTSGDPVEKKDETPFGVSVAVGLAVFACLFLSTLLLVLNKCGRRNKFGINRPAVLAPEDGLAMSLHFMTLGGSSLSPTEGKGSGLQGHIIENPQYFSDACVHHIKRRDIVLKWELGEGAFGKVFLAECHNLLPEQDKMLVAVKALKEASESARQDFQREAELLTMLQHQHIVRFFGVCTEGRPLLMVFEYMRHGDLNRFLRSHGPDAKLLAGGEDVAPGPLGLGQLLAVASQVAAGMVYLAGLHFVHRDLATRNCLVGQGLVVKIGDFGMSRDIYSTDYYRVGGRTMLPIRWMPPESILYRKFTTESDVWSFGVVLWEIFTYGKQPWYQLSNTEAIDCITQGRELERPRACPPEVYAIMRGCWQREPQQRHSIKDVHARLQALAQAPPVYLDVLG

axotomized RGCs [4] = details: other studies; cited from earlier work
[5] = daily betaxolol days 14-49 (~17 days of high IOP), intraocular injections at days 14 & 21
[6] = daily betaxolol days 14 to 42 (~17 days of high IOP), intraocular injections 1 μg at days 14 & 21
[7] = no betaxolol, 42 days of high IOP, intraocular injections 1 μg at days 14 & 21
[8] = no betaxolol, 49 days of high IOP, intraocular injections at days 14 & 21

Molecule: CC(C)NCC(O)COc1ccc(CCOCC2CC2)cc1 (stereo not drawn) [Betaxolol, betaxolol, reference compound]
- IOP by day 7 ([1]; cauterized rats receiving daily topical betaxolol): normal IOPs
- effect on normal IOP of non-cauterized eyes ([1]; daily topical betaxolol, normal eyes): no significant effect
- % RGCs loss at day 49 (vs. Normal) ([2]; daily betaxolol days 14-49 alone, no intraocular injection): 27 ± 5%
- % RGCs loss at day 49 (vs. Normal) ([2]; daily betaxolol days 14-49 alone, no intraocular injection, listed as betaxolol): 27%
- % RGCs loss at day 42 (vs. Norma) ([2]; daily betaxolol days 14 to 42 alone, no intraocular injection): 21 ± 2%
- % RGCs loss at day 42 (vs. Norma) ([2]; daily betaxolol days 14 to 42 alone, no intraocular injection, listed as betaxolol): 21%
- RGC loss (% of normal IOP) ([2]; day 0 post-cautery): 0%
- RGC loss (% of normal IOP) ([2]; day 7 post-cautery): 3 ± 3%
- RGC loss (% of normal IOP) ([2]; day 14 post-cautery): 4 ± 3%
- RGC loss (% of normal IOP) ([2]; day 21 post-cautery): 7 ± 3%
- RGC loss (% of normal IOP) ([2]; day 28 post-cautery): 10 ± 4%
- RGC loss (% of normal IOP) ([2]; day 35 post-cautery): 14 ± 2%
- RGC loss (% of normal IOP) ([2]; day 42 post-cautery): 20 ± 5%

Molecule: NCCCC[C@@H]1NC(=O)C(CCC(=O)O)NC(=O)c2cc([N+](=O)[O-])ccc2OCCC(C(=O)NCC(=O)O)NC1=O (stereo partly drawn) [D3]
- survival of axotomized RGCs (axotomized RGCs [3]): strong survival-promoting effects
- effect on cholinergic neurons in the CNS (CNS; evaluated previously, spatial memory tests): protect the number, phenotype, and function of cholinergic neurons
- binding to p75 (p75 receptor): does not bind
- % RGCs loss at day 49 (vs. Normal) [2, 5]: 18 ± 6%
- % RGCs loss at day 42 (vs. Norma) [2, 6]: 11% and 11 ± 4%
- % RGCs loss at day 42 (vs. Norma) [2, 7]: 29% and 29 ± 3%
- % RGCs loss at day 49 (vs. Normal) [2, 8]: 26 ± 6%
- protection of RGCs, formula (testloss−day14loss)/(day42loss−day14loss)*100 ([2]; day 42, intraocular injections at days 14 and 21, no betaxolol): ~25%
- protection of RGCs ([2]; day 42, intraocular injections at days 14 and 21 in combination with daily betaxolol): > 90%
- effect on RGC survival / apoptosis ([2]; day 49 glaucoma, intraocular injections at days 14 and 21, alone or with betaxolol): markedly reduced RGC apoptosis
- activity at TrkA (TrkA): selective partial agonist

Molecule: NGF: Nerve Growth Factor, neurotrophin that binds TrkA and p75
- % RGCs loss at day 42 (vs. Norma) [2, 6]: 19 ± 4%
- % RGCs loss at day 42 (vs. Norma) [2, 7]: 42 ± 5%
- protection of RGCs from death ([2]; day 42 glaucoma, intraocular injections, with or without betaxolol): did not protect

Molecule: YCATDIKGKECY (also: cyclic) [C(28-35) peptide]
- protection of RGCs in vivo in optic nerve axotomy (axotomized RGCs [4]): short-term protection
- in vivo stability and efficacy in the CNS (CNS; previous in vivo studies): in vivo stability and efficacy
- effect on p75-NGF interactions (p75 receptor): antagonist
- % RGCs loss at day 49 (vs. Normal) [2, 5]: 29 ± 4%
- % RGCs loss at day 49 (vs. Normal) [2, 8]: 32 ± 11%
- effect on RGC survival / apoptosis ([2]; rat, in vivo): did not enhance RGC survival; also recorded: did not prevent or reduce RGC death
